Data on one compound can be found in paper PMC6083370, “Influence of OATPs on Hepatic Disposition of Erlotinib Measured With Positron Emission Tomography” (Clinical Pharmacology and Therapeutics, 2017).

Molecules are shown by their SMILES.

As usually defined, the IC50 is the concentration that inhibits the measured activity by half.

Data set [1] in a line: Tolerability of study medication in healthy volunteers. The class given is in vivo, human. Conditions: microdose (<10 μg) i.v. and 300 mg oral. As for the experimental part: One female and five male healthy volunteers (mean age: 27 ± 6 years, mean weight: 79 ± 7 kg) were enrolled in the study. […] Radioactivity in the upper abdominal region was measured over 90 min by employing a consecutive frame sequence of 1 × 15, 3 × 5, 3 × 10, 2 × 30, 3 × 60, 2 × 150, and 16 × 300 sec. In parallel to PET imaging, serial blood samples were drawn from the radial artery for the first 2.5 min, followed by samples at 3.5, 5, 10, 20, 30, 40, 60, and 80 min after radiotracer injection. For both PET scans, subjects were asked to fast for at least 6 h before radiotracer injection. Approximately 3 h before start of the second PET scan, an oral dose of 300 mg erlotinib (Tarceva, Roche Pharma, Nutley, NJ; two 150‐mg tablets) was administered. Ten blood samples were collected at baseline and hourly for 8 h and at ∼21 h after erlotinib intake. Blood samples were centrifuged to obtain plasma, which was kept at −80°C until analysis of erlotinib concentrations.

The test system of data set [2] is P‐glycoprotein (Pgp/ABCB1). More on the design: method as in PMID 20304939, PMID 21088257. To be noted: cited from earlier work.
Data set [3] concerns organic anion transporter 3 (OAT3/SLC22A8). More on the design: method as in PMID 20304939, PMID 21088257. Conditions: cited from earlier work.
The test system of another data set is OATP1B3. To be noted: read-out: IC50 for inhibition of OATP1B3; cited from earlier work.
The test system of data set [4] is organic cation transporter 2 (OCT2/SLC22A2). More on the design: method as in PMID 20304939, PMID 21088257. To be noted: cited from earlier work.
The subject of a further data set is OATP2B1. Conditions: read-out: IC50 for OATP2B1 inhibition; cited from earlier work.
In a further data set the target is T1, OATP1B1 (SLCO1B1) (Homo sapiens, UniProt Q9Y6L6).
T1 sequence (Q9Y6L6 1-691): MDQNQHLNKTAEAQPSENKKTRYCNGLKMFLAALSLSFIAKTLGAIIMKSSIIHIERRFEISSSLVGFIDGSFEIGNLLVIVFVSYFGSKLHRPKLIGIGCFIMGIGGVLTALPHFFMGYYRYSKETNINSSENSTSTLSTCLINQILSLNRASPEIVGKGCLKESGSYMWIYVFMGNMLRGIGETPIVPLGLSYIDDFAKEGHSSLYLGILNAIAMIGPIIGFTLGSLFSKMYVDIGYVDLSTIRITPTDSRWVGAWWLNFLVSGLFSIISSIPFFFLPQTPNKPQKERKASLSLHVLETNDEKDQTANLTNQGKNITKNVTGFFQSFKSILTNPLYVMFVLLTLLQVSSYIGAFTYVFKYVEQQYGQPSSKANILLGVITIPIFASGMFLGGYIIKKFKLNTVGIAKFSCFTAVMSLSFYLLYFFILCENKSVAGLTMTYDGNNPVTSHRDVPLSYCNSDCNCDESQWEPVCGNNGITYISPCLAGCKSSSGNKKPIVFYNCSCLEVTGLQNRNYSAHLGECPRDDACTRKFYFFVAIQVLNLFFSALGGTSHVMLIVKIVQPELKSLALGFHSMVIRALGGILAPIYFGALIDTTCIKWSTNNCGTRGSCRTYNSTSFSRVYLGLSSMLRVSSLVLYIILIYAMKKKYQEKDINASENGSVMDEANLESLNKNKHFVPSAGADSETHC
Conditions: erlotinib 1 μM, cyclosporine A 10 μM, rifampicin 100 μM; 5 min.

The subject of the next data set is OAT2 (SLC22A7). More on the design: method as in PMID 21088257. To be noted: cited from earlier work.

Description for OATP1B1 (SLCO1B1): A431 cells transfected with the empty vector were used as a negative control. All cell lines were cultured in Dulbecco's modified eagle medium supplemented with 10% fetal bovine serum, 2 mM L-glutamine, 100 units/mL penicillin and 100 µg/mL streptomycin. […] On the day of the experiment, growth medium was aspired and cells were washed with pre-warmed transport buffer (Hank's balanced salt solution supplemented with 10 mM N-2-hydroxyethylpiperazine-N-2-ethane sulfonic acid). […] Then the drug solutions were removed and cells were washed with pre-warmed transport buffer. […] For time dependency experiments, pre-warmed transport buffer was added and cells were incubated for 30 min. […] In all experiments, cell count was determined on separate 24-well tissue culture plates before or after each experiment. […] Each inhibition experiment was performed 2 times with 3 technical replicates each and radioactivity in cells was corrected for radioactive decay, normalized to 10^6 cells and expressed as percent of vector control (% control). The time dependency experiment was performed once with 3 technical replicates and radioactivity in cells was corrected for radioactive decay and expressed as percent of applied dose per 10^6 cells (%AD/10^6 cells). The concentration dependency experiment was performed once with 3 technical replicates and radioactivity in cells was corrected for radioactive decay. […]

As for `C#Cc1cccc(Nc2ncnc3cc(OCCOC)c(OCCOC)cc23)c1` [erlotinib], the “tolerability, adverse events” value in data set [1] is on record as “well tolerated by all subjects with no occurrence of adverse events”. The “substrate of Pgp” value in data set [2] is on record as “substrate”. In data set [3], the “substrate of OAT3” value was “substrate”. Moreover, the results for the IC50 with OATP1B3 and in the data set with OATP2B1 were 1190 nM and 30 nM, respectively. In addition, the “substrate of OCT2” value in data set [4] is “substrate”. For the same compound, the “effect on [^11C]erlotinib uptake in OATP1B1 overexpressing cells” value on OATP1B1 (SLCO1B1) was “no effect”. For the same compound, the “substrate of OAT2” value in the data set on OAT2 (SLC22A7) is on record as “not a substrate”.
